Tested on: HaCaT cells
Assay: Cell cytotoxicity test (CCK-8)
Format: cell-based, human
Settings: 125-1,000 ppm, 24 hours, CCK-8, FIG. 6
Procedure: HaCaT cells are seeded into a 96 well plate at 10^5 cells/well. After attachment overnight, remove culture medium. The frozen peptide (KTTKS(SEQ ID NO: 1), CRGDS(SEQ ID NO: 2), and RRRRRR(SEQ ID NO: 3)) and the glucosamine derivative nanoparticles are respectively dissolved in serum-free medium (SFM) again (final concentration 1,000 ppm). Use SFM to carry out serial dilution and get concentrations of 500 ppm, 250 ppm, and 125 ppm. Then add 100 μl samples with different concentrations into the well plate (repeat four times and a group of samples added with SFM used as control group). After being cultured for 24 hours, remove culture medium and add 10 μl CCK-8 and 100 μl PBS into each of the wells. Then react at 37° C. for 2-3 hours and read absorbance at 450 nm. Cell viability is defined as a percentage of the absorbance of the respective test groups relative to the absorbance of the control group while the cell viability of the control group is set as 100%.

N[C@H]1C(O)O[C@H](CO)[C@@H](O)[C@@H]1O (stereo partly shown) [glucosamine]
cell viability trend with concentration: reduced a bit along with the increasing glucosamine concentration

Source: US12540154B2, “Glucosamine derivative nanoparticle and preparating method and use thereof” (CPC Corporation, TAIWAN, priority 2023, dated 2026)
